# Reference: publication PMC7576608, “Mechanisms of telomerase inhibition by oxidized and therapeutic dNTPs” (Nature Communications, 2020)
# Molecular target: telomerase (Homo sapiens, UniProt O14746)
# Assay: Telomerase extension of 32P-end labeled primers with a single dNTP (percent primer extension)
# Format: biochemical
# Set-up: made in house; anti-FLAG immunopurification, eluted with 3xFLAG peptide
# Details: for Percent Primer Extension: 50 μM single dNTP
# Protocol: A chain terminating mechanism of inhibition requires that the enzyme adds the modified dNTP to a growing chain, which then blocks further synthesis. […] To test whether telomerase can incorporate other modified dNTPs, and whether the incorporation is chain terminating and/or mutagenic, we conducted direct extension assays in which we radiolabeled the primer and added increasing concentrations (5, 50, and 500 μM) of a single dNTP (Supplementary Figs. 3, 5, 6, and 7). Since modified dNTPs may prefer mispairing, we tested various primers in which the first template base was either rA3, rC1, or rU5 (primer 1, primer 2, and primer 3, respectively), and compared the percent primer extension for each dNTP at the middle 50 μM concentration (Fig. 3). Primers 1 and 2 initiate synthesis at consecutive rA3rA4 or rC1rC2 template bases, respectively, so we could examine both incorporation and extension to the next base. However, the telomerase template lacks tandem rU residues.
# Fig. 3 Telomerase insertion of modified dNTPs. Telomerase reactions were conducted with 5 nM ^32P-end labeled primer a Primer 1 (TTAGGG)3, b Primer 2 (GGTTAG)3, or c Primer 3 (AGGGTT)3. Reactions contained cellular-concentration dNTPs (lane 1) or 50 μM of indicated natural dNTP (blue, lanes 2–5), oxidized dNTP (red, lanes 6–8), or therapeutic dNTP (green, lanes 9–11). Products were separated on denaturing gels. […] Letters on the right indicate the template base; P indicates unextended 18-mer primer. Graphs represent the percent of total primers extended. Images are representative of, and data are shown as mean ± s.d. from, three independent experiments. Source data are provided as a Source Data file.
# An equal volume of loading buffer (94% formamide, 0.1× TBE, 0.1% bromophenol blue, 0.1% xylene cyanol) was added to the reaction eluent. The samples were heat denatured for 10 min at 100 °C and loaded onto a 14% denaturing acrylamide gel (7 M urea, 1× TBE) and electrophoresed for 90 min at constant 38 W. Samples were imaged using a Typhoon phosphorimager (GE Healthcare). Percent primer extension was calculated with ImageQuant TL 8.2 by measuring the intensity of each product band and dividing by the total radioactivity in the lane or total products, as indicated in the figure legends.
# Telomerase reactions were conducted with 5 nM 32P-end labeled primer (a) Primer 1 (TTAGGG)3, (b) Primer 2 (GGTTAG)3, or (c and d) Primer 3 […]
# (d) reactions contained 3 µg/µl RNase A. Products were separated on denaturing gels. Letters on the right indicate the template base; P indicates unextended 18-mer primer. Graphs represent the percent of total primers extended for the reactions in panels a – c from one experiment. Panel d is a representative image from three independent experiments. Source data are provided as a Source Data file. […]
# Supplementary Fig 4. Time course reactions with telomerase or pol β. (a, b) Telomerase reactions were conducted with 5 nM 32P-end labeled primer (a) Primer 4 (GTTAGG)3 or (b) Primer 2 (GGTTAG)3.
# Products were separated on denaturing gels. Letters on the right indicate the template base; P indicates […]
# unextended 18-mer primer. […]
# [1] = Primer 1 (TTAGGG)3, first template base rA3, Mean of three experiments
# [2] = Primer 2 (GGTTAG)3, first template base rC1, Mean of three experiments
# [3] = end-labeled primers, single dNTP
# [4] = Primer 2 (GGTTAG)3, first template base rC1, single experiments n1-n3
# [5] = Primer 3 (AGGGTT)3, first template base rU5, Mean of three experiments
# [6] = Primer 3 (AGGGTT)3, first template base rU5, single experiments n1-n3
# Chain of telomerase (O14746 whole entry): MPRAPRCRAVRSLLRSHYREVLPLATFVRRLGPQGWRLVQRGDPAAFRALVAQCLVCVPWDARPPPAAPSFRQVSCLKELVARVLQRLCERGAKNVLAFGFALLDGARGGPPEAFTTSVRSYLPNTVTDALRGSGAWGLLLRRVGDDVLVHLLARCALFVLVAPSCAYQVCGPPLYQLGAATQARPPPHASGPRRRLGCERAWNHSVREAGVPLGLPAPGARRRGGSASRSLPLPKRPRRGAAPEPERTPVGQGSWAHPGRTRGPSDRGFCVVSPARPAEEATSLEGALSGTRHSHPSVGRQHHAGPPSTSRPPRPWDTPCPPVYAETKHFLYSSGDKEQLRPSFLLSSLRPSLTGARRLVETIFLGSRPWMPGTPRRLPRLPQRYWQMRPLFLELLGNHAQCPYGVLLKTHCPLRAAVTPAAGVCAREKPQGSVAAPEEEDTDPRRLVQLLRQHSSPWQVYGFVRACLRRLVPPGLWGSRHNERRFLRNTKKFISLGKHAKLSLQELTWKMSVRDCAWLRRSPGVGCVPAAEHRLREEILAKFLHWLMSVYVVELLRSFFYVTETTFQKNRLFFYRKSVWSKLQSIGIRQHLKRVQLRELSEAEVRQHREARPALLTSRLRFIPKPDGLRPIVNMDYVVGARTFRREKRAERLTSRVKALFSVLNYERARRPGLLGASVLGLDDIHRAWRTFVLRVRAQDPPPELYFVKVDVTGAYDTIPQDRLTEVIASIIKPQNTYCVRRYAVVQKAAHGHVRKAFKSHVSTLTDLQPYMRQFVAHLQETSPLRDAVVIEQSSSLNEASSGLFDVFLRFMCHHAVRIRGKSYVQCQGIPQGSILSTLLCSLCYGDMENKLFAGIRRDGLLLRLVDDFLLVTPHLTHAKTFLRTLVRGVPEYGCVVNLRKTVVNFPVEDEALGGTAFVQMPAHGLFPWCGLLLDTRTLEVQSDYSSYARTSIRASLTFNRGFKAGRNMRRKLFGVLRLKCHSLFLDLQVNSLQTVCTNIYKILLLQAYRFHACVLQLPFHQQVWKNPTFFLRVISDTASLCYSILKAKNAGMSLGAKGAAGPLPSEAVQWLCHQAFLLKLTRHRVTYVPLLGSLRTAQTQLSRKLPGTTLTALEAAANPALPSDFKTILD
smiles,measurement,setting,value
Nc1nc(O)nc2c1ncn2C1CC(O)C(COP(=O)(O)OP(=O)(O)OP(=O)(O)O)O1 (stereo not drawn) [2-OH-dATP],Percent Primer Extension,[1],2.82%
same,% Primer Extension,"Primer 1, 5µM dNTP",0.00%
same,% Primer Extension,"Primer 1, 50µM dNTP",1.98%
same,% Primer Extension,"Primer 1, 500µM dNTP",6.01%
same,Percent Primer Extension,[2],1.32%
same,% Primer Extension,"Primer 2, 5µM dNTP",0.00%
same,% Primer Extension,"Primer 2, 50µM dNTP",1.93%
same,% Primer Extension,"Primer 2, 500µM dNTP",3.14%
same,Fold less product than with dATP,"Primer 3, insertion opposite rU5, 50 μM",2 fold
same,% Primer Extension,"Primer 3, 5µM dNTP",8.27%
same,% Primer Extension,"Primer 3, 50µM dNTP",15.94%
same,% Primer Extension,"Primer 3, 500µM dNTP",46.35%
same,Mutagenic insertion by telomerase (in words),misinsertion opposite rA3 and rC1,not mutagenic
Nc1nc2c(ncn2C2CC(O)C(COP(=O)(O)OP(=O)(O)OP(=O)(O)O)O2)c(=S)[nH]1 (stereo not drawn) [6-thio-dGTP],% Primer Extension,"Primer 1, 5µM dNTP",0%
same,% Primer Extension,"Primer 1, 50µM dNTP",3.68%
same,% Primer Extension,"Primer 1, 500µM dNTP",4.47%
same,% Primer Extension,"Primer 2, 5µM dNTP",6.19%
same,% Primer Extension,"Primer 2, 50µM dNTP",6.25%
same,% Primer Extension,"Primer 2, 500µM dNTP",8.35%
same,% Primer Extension,"Primer 3, 5µM dNTP",6.75%
same,% Primer Extension,"Primer 3, 50µM dNTP",6.04%
same,% Primer Extension,"Primer 3, 500µM dNTP",7.79%
same,Chain termination after telomerase insertion (in words),[3],not a telomerase chain terminator
Nc1ncnc2c1[nH]c(=O)n2C1CC(O)C(COP(=O)(O)OP(=O)(O)OP(=O)(O)O)O1 (stereo not drawn) [8-oxo-dATP],Percent Primer Extension,[1],0.53%
same,% Primer Extension,"Primer 1, 5µM dNTP",0.00%
same,% Primer Extension,"Primer 1, 50µM dNTP",0.00%
same,% Primer Extension,"Primer 1, 500µM dNTP",1.79%
same,Percent Primer Extension,[2],0.00%
same,Percent Primer Extension,[4],0.00%
same,% Primer Extension,"Primer 2, 5µM dNTP",0.00%
same,% Primer Extension,"Primer 2, 50µM dNTP",0.00%
same,% Primer Extension,"Primer 2, 500µM dNTP",0.00%
same,Percent Primer Extension,[5],0.00%
same,Percent Primer Extension,[6],0.00%
same,% Primer Extension,"Primer 3, 5µM dNTP",0.00%
same,% Primer Extension,"Primer 3, 50µM dNTP",0.00%
same,% Primer Extension,"Primer 3, 500µM dNTP",0.00%
same,Quality as telomerase substrate (in words),[3],very poor substrate for telomerase
Nc1nc2c([nH]c(=O)n2C2CC(O)C(COP(=O)(O)OP(=O)(O)OP(=O)(O)O)O2)c(=O)[nH]1 (stereo not drawn) [8-oxo-dGTP],Percent Primer Extension,[1],10.80%
same,% Primer Extension,"Primer 1, 5µM dNTP",5.20%
same,% Primer Extension,"Primer 1, 50µM dNTP",7.44%
same,% Primer Extension,"Primer 1, 500µM dNTP",8.42%
same,Percent Primer Extension,[2],0.96%
same,% Primer Extension,"Primer 2, 5µM dNTP",0.88%
same,% Primer Extension,"Primer 2, 50µM dNTP",1.37%
same,% Primer Extension,"Primer 2, 500µM dNTP",6.18%
same,Percent Primer Extension,[5],0.00%
same,Percent Primer Extension,[6],0.00%
same,% Primer Extension,"Primer 3, 5µM dNTP",0.00%
same,% Primer Extension,"Primer 3, 50µM dNTP",0.00%
same,% Primer Extension,"Primer 3, 500µM dNTP",0.00%
same,Chain termination after telomerase insertion (in words),[3],chain-terminating ability
Cc1cn([C@H]2C[C@H](N=[N+]=[N-])[C@@H](CO[P@](=O)(O)O[P@](=O)(O)OP(=O)(O)O)O2)c(=O)[nH]c1=O [AZT-TP],Percent Primer Extension,[2],0.00%
same,Percent Primer Extension,[4],0.00%
same,Percent Primer Extension,[5],0.00%
same,Percent Primer Extension,[6],0.00%
same,Chain termination after telomerase insertion (in words),[3],genuine telomerase chain terminators
Nc1ncnc2c1ncn2C1CC(O)C(COP(=O)(O)OP(=O)(O)OP(=O)(O)O)O1 (stereo not drawn) [dATP],Percent Primer Extension,[1],3.48%
same,% Primer Extension,"Primer 1, 5µM dNTP",0.00%
same,% Primer Extension,"Primer 1, 50µM dNTP",1.84%
same,% Primer Extension,"Primer 1, 500µM dNTP",3.63%
same,Percent Primer Extension,[2],0.00%
same,Percent Primer Extension,[4],0.00%
same,% Primer Extension,"Primer 2, 5µM dNTP",0.00%
same,% Primer Extension,"Primer 2, 50µM dNTP",0.00%
same,% Primer Extension,"Primer 2, 500µM dNTP",2.50%
same,% Primer Extension,"Primer 3, 5µM dNTP",11.52%
same,% Primer Extension,"Primer 3, 50µM dNTP",14.88%
same,% Primer Extension,"Primer 3, 500µM dNTP",23.85%
Nc1nc2c(ncn2C2CC(O)C(COP(=O)(O)OP(=O)(O)OP(=O)(O)O)O2)c(=O)[nH]1 (stereo not drawn) [dGTP],% Primer Extension,"Primer 1, 5 µM dGTP, one experiment",5.54%
same,% Primer Extension,"Primer 1, 50 µM dGTP, one experiment",14.06%
same,% Primer Extension,"Primer 1, 500 µM dGTP, one experiment",18.26%
same,% Primer Extension,"Primer 2, 5 µM dGTP, one experiment",20.91%
same,% Primer Extension,"Primer 2, 50 µM dGTP, one experiment",31.85%
same,% Primer Extension,"Primer 2, 500 µM dGTP, one experiment",40.91%
same,% Primer Extension,"Primer 3, 5 µM dGTP, one experiment",2.22%
same,% Primer Extension,"Primer 3, 50 µM dGTP, one experiment",6.90%
same,% Primer Extension,"Primer 3, 500 µM dGTP, one experiment",12.81%
same,% Primer Extension,"time course, 50 μM dGTP, primer 2 (GGTTAG)3, 0 minutes",0.00%
same,% Primer Extension,"time course, 50 μM dGTP, primer 2 (GGTTAG)3, 1 minute",1.70%
same,% Primer Extension,"time course, 50 μM dGTP, primer 2 (GGTTAG)3, 3 minutes",2.22%
same,% Primer Extension,"time course, 50 μM dGTP, primer 2 (GGTTAG)3, 5 minutes",2.61%
same,% Primer Extension,"time course, 50 μM dGTP, primer 2 (GGTTAG)3, 9 minutes",2.82%
same,% Primer Extension,"time course, 50 μM dGTP, primer 2 (GGTTAG)3, 15 minutes",7.50%
same,% Primer Extension,"time course, 50 μM dGTP, primer 2 (GGTTAG)3, 30 minutes",7.57%
same,% Primer Extension,"time course, 50 μM dGTP, primer 2 (GGTTAG)3, 45 minutes",7.80%
same,% Primer Extension,"time course, 50 μM dGTP, primer 4 (GTTAGG)3, 0 minutes",0.00%
same,% Primer Extension,"time course, 50 μM dGTP, primer 4 (GTTAGG)3, 1 minute",1.79%
same,% Primer Extension,"time course, 50 μM dGTP, primer 4 (GTTAGG)3, 3 minutes",0.86%
same,% Primer Extension,"time course, 50 μM dGTP, primer 4 (GTTAGG)3, 5 minutes",1.17%
same,% Primer Extension,"time course, 50 μM dGTP, primer 4 (GTTAGG)3, 9 minutes",1.23%
same,% Primer Extension,"time course, 50 μM dGTP, primer 4 (GTTAGG)3, 15 minutes",1.72%
same,% Primer Extension,"time course, 50 μM dGTP, primer 4 (GTTAGG)3, 30 minutes",4.10%
same,% Primer Extension,"time course, 50 μM dGTP, primer 4 (GTTAGG)3, 45 minutes",8.71%
Cc1cn(C2CC(O)C(COP(=O)(O)OP(=O)(O)OP(=O)(O)O)O2)c(=O)[nH]c1=O (stereo not drawn) [dTTP],% Primer Extension,"Primer 1, 5µM dNTP",30.00%
same,% Primer Extension,"Primer 1, 50µM dNTP",36.00%
same,% Primer Extension,"Primer 1, 500µM dNTP",45.00%
same,Percent Primer Extension,[2],0.00%
same,Percent Primer Extension,[4],0.00%
same,% Primer Extension,"Primer 2, 5µM dNTP",0.00%
same,% Primer Extension,"Primer 2, 50µM dNTP",0.00%
same,% Primer Extension,"Primer 2, 500µM dNTP",0.00%
same,% Primer Extension,"Primer 3, 5µM dNTP",3.79%
same,% Primer Extension,"Primer 3, 50µM dNTP",9.26%
same,% Primer Extension,"Primer 3, 500µM dNTP",17.69%
